Consider 19 compounds from patent EP2955182A1, “Pyridazinones for the treatment of cancer” (Max-Planck-Gesellschaft zur Förderung der Wissenschaften …, priority 2014, dated 2015).

For one assay, the target named is PDEδ (Homo sapiens, UniProt O43924). As to the kind of experiment: Fluorescence polarization competition binding assay (displacement titration of labeled Atorvastatin-probe). The conditions noted are these: fluorescence polarization assay, displacement of fluorescent-tagged Atorvastatin analog from PDEδ; read-out: KD. The source says:
Example C.2: Displacement titrations of labeled Atorvastatin-probe for the determination of KD values:
Table 3. KD values for compounds of general formula (I) as determined by means of fluorescence polarization assay
On the technique in general: Fluorescence polarisation rises when a labelled molecule tumbles more slowly, as on binding a larger partner.
With `COc1ccccc1-c1nnc(CCCn2c(C)c3cnn(-c4ccccc4)c(=O)c3c2C)o1` [Compound 25, 6-(3-(5-(2-methoxyphenyl)-1,3,4-oxadiazol-2-yl)propyl)-5,7-dimethyl-2-phenyl-2,6-dihydro-1H-pyrrolo[3,4-d]pyridazin-1-one], the Kd (as a rule, the constant that tells how readily two partners part at equilibrium) is 0.1 to 1 µM.
Consider `COc1ccc(-c2nnc(CCCn3c(C)c4cnn(-c5ccccc5)c(=O)c4c3C)o2)cc1` [Compound 24, 6-(3-(5-(4-methoxyphenyl)-1,3,4-oxadiazol-2-yl)propyl)-5,7-dimethyl-2-phenyl-2,6-dihydro-1H-pyrrolo[3,4-d]pyridazin-1-one], for which the Kd is > 1 µM.
Still for that read-out and setting: the same measure for `COc1ccccc1CNC(=O)CCCn1nc(C)c2c(C)n(-c3ccccc3)nc2c1=O` [Compound 34, 4-(3,4-dimethyl-7-oxo-2-phenyl-2H-pyrazolo[3,4-d]pyridazin-6(7H)-yl)-N-(2-methoxybenzyl)butanamide]: 0.03 to 0.1 µM; for `Cc1c2cnn(-c3ccccc3)c(=O)c2c(C)n1CCCC(=O)NC1CCCC(C)C1C` (stereo not drawn) [Compound 14, 4-(5,7-dimethyl-1-oxo-2-phenyl-1H-pyrrolo[3,4-d]pyridazin-6(2H)-yl)-N-(2,3-dimethylcyclohexyl)butanamide]: < 0.03 µM; for `Cc1c2cnn(-c3ccccc3)c(=O)c2c(C)n1CCCC(=O)NC1CCCCC1` [Compound 11, N-cyclohexyl-4-(5,7-dimethyl-1-oxo-2-phenyl-1H-pyrrolo[3,4-d]pyridazin-6(2H)-yl)butanamide]: < 0.03 µM.
The same measure, in the same setting: the same measure for `Cc1c2cnn(-c3ccccc3)c(=O)c2c(C)n1CCCC(=O)NC1CCCCC1C` (stereo not drawn) [Compound 13, 4-(5,7-dimethyl-1-oxo-2-phenyl-1H-pyrrolo[3,4-d]pyridazin-6(2H)-yl)-N-(2-methylcyclohexyl)butanamide]: < 0.03 µM.
The same measure, in the same setting: the same measure for `Cc1c2cnn(-c3ccccc3)c(=O)c2c(C)n1CCCc1nc2ccccc2n1Cc1ccccc1` [Compound 15, 6-(3-(1-benzyl-1H-benzo[d]imidazol-2-yl)propyl)-5,7-dimethyl-2-phenyl-2,6-dihydro-1H-pyrrolo[3,4-d]pyridazin-1-one]: < 0.03 µM; for `Cc1ccc(-n2nc3c(=O)n(CCCC(=O)NCCc4ccc(Cl)cc4)nc(C)c3c2C)cc1` [Compound 48, N-(4-chlorophenethyl)-4-(3,4-dimethyl-7-oxo-2-(p-tolyl)-2H-pyrazolo[3,4-d]pyridazin-6(7H)-yl)butanamide]: < 0.03 µM; for `Cc1ccc(CNC(=O)CCCn2nc(C)c3c(C)n(-c4ccc(C)cc4)nc3c2=O)cc1` [Compound 44, 4-(3,4-dimethyl-7-oxo-2-(p-tolyl)-2H-pyrazolo[3,4-d]pyridazin-6(7H)-yl)-N-(4-methylbenzyl)butanamide]: < 0.03 µM.
As to `Cc1c2cnn(-c3ccccc3)c(=O)c2c(C)n1CCCC(=O)NC1CCCC1` [Compound 10, N-cyclopentyl-4-(5,7-dimethyl-1-oxo-2-phenyl-1H-pyrrolo[3,4-d]pyridazin-6(2H)-yl)butanamide], the Kd lay in the range of 0.03 to 0.1 µM.
Still for that read-out and setting: the same measure for `Cc1c2cnn(-c3ccccc3)c(=O)c2c(C)n1CCCC(=O)NCc1ccccc1Cl` [Compound 4, N-(2-chlorobenzyl)-4-(5,7-dimethyl-1-oxo-2-phenyl-1H-pyrrolo[3,4-d]pyridazin-6(2H)-yl)butanamide]: < 0.03 µM; for `COc1cccc(CNC(=O)CCCn2c(C)c3cnn(-c4ccccc4)c(=O)c3c2C)c1` [Compound 2, 4-(5,7-dimethyl-1-oxo-2-phenyl-1H-pyrrolo[3,4-d]pyridazin-6(2H)-yl)-N-(3-methoxybenzyl)butanamide]: 0.03 to 0.1 µM; for `Cc1ccc(-n2nc3c(=O)n(CCCC(=O)NCCc4cccc(Cl)c4)nc(C)c3c2C)cc1` [Compound 49, N-(3-chlorophenethyl)-4-(3,4-dimethyl-7-oxo-2-(p-tolyl)-2H-pyrazolo[3,4-d]pyridazin-6(7H)-yl)butanamide]: < 0.03 µM.
For the compound `Cc1c2cnn(-c3ccccc3)c(=O)c2c(C)n1CCCc1nc(-c2ccc(C(F)(F)F)cc2)no1` [Compound 20, 5,7-dimethyl-2-phenyl-6-(3-(3-(4-(trifluoromethyl)phenyl)-1,2,4-oxadiazol-5-yl)propyl)-2,6-dihydro-1H-pyrrolo[3,4-d]pyridazin-1-one], the Kd is > 1 µM.
Take `Cc1ccc(-n2nc3c(=O)n(CCCC(=O)NC4CC4)nc(C)c3c2C)cc1` [Compound 51, N-cyclopropyl-4-(3,4-dimethyl-7-oxo-2-(p-tolyl)-2H-pyrazolo[3,4-d]pyridazin-6(7H)-yl)butanamide]: the Kd lay within 0.1 to 1 µM.
On the same count and under the same terms, for `Cc1c2cnn(-c3ccccc3)c(=O)c2c(C)n1CCCC(=O)NCc1cccs1` [Compound 6, 4-(5,7-dimethyl-1-oxo-2-phenyl-1H-pyrrolo[3,4-d]pyridazin-6(2H)-yl)-N-(thiophen-2-ylmethyl)butanamide] the value was 0.1 to 1 µM; for `COc1cccc(CNC(=O)CCCn2nc(C)c3c(C)n(-c4ccccc4)nc3c2=O)c1` [Compound 33, 4-(3,4-dimethyl-7-oxo-2-phenyl-2H-pyrazolo[3,4-d]pyridazin-6(7H)-yl)-N-(3-methoxybenzyl)butanamide], 0.03 to 0.1 µM.
Same read-out and setting: for `Cc1c2cnn(-c3ccccc3)c(=O)c2c(C)n1CCCC(=O)NCc1cccc(Cl)c1` [Compound 3, N-(3-chlorobenzyl)-4-(5,7-dimethyl-1-oxo-2-phenyl-1H-pyrrolo[3,4-d]pyridazin-6(2H)-yl)butanamide] the value was 0.03 to 0.1 µM.

For the next assay, the system named is Panc-Tu-I. Description: Real time cell analysis (RTCA) impedance proliferation measurement. The following applies: Panc-Tu-I (Figure 6f); after a certain time.
As to `Cc1ccc(-n2nc3c(=O)n(CCCC(=O)NCC(C)c4ccccc4)nc(C)c3c2C)cc1` (stereo not drawn) [Compound 50, 4-(3,4-dimethyl-7-oxo-2-(p-tolyl)-2H-pyrazolo[3,4-d]pyridazin-6(7H)-yl)-N-(2-phenylpropyl)butanamide], the cell death result is listed as “leading after a certain time to cell death”.

The same assay, now with this note: Panc-Tu-I; administered 24 hours after seeding; monitored up to 100 hours.
As for `Cc1ccc(-n2nc3c(=O)n(CCCC(=O)NCC(C)c4ccccc4)nc(C)c3c2C)cc1` (stereo not drawn) [Compound 50, 4-(3,4-dimethyl-7-oxo-2-(p-tolyl)-2H-pyrazolo[3,4-d]pyridazin-6(7H)-yl)-N-(2-phenylpropyl)butanamide], the “proliferation of K-Ras dependent cells” value was “inhibits the proliferation”.

For the next assay, the system named is BxPC-3. The assay is described as above. Format: cell-based. The following applies: administered 24 hours after seeding, monitored up to 100 hours.
As for `Cc1ccc(-n2nc3c(=O)n(CCCC(=O)NCC(C)c4ccccc4)nc(C)c3c2C)cc1` (stereo not drawn) [Compound 50, 4-(3,4-dimethyl-7-oxo-2-(p-tolyl)-2H-pyrazolo[3,4-d]pyridazin-6(7H)-yl)-N-(2-phenylpropyl)butanamide], the “proliferation of K-Ras dependent cells” value was “inhibits the proliferation”.
